For assay [1], the system named is JEG-3 cells. Description: [3H]-thymidine incorporation by JEG-3 cells (leptin assay in non-recombinant system). The assay is classed as cell-based. The settings on record: FIG. 5. The source says:
Leptin Assay in Non-Recombinant System The leptin receptor expression in non-recombinant system is often fluctuating and care must be given to identify a system where signal stability remains within experiments. Using such a system, leptin receptor antagonist mimetics could be identified by evaluating is their action vs. leptin (see below). Leptin is produced chiefly in adipose cells, but in humans, mRNA encoding leptin is also present in the placenta. Here, leptin might play an important proliferative role in the microvasculature. The possibility to use this hypothesis in a native cell line was evaluated. JEG-3 Protocol In JEG-3 cells (choriocarcinoma cell line) leptin is able to stimulate proliferation up to 3 fold (Biol. Reprod. (2007) 76: 203-10). […] The radioactivity incorporated by the cells is an index of their proliferative activity and is measured in counts per minute (CPM) with a liquid scintillation beta counter. This finding can be applied to test whether a compound is able to either reproduce the effect of leptin on cell proliferation (leptin receptor agonist mimetic) (i.e., a given compound will cause an increase in incorporated [^3H]-Thymidine by the cells) or to inhibit the effect of leptin (antagonistic effect) by preventing the leptin-mediated increase in [^3H]-thymidine incorporation. […]

For assay [2], the system named is JEG-3 cells. The settings on record: Biol. Reprod. (2007) 76: 203-10; cited from earlier work.

Turning to “leptin: a hormone synthesized in fat cells that is believed to act in the hypothalamus to reduce food intake and body weight”, the EC50 in assay [1] (JEG-3 cells (choriocarcinoma cell line), read-out: EC50, increase in [3H]-thymidine incorporation) came out at 2.1 nM. Further, the “concentration of maximal effect on [3H]-thymidine incorporation” value in assay [1] (JEG-3 cells) was 100 nM. For the same substance, the stimulation of proliferation entry in assay [2] is listed as “up to 3 fold”.

The values are drawn from patent US20110275678A1, “New Pyridine Derivatives as Leptin Receptor Modulator Mimetics” (priority 2008, published 2011).
